This is an account of results in patent publication US20240390403A1, “COMPOSITION AND METHODS FOR TREATING AN ANEURYSM” (Nectero Medical, Inc., priority 2023, published 2024).

This assay concerns porcine abdominal aortas. Description: opening angle experiment on porcine abdominal aortic rings. To be noted: for statistical analysis of opening angles (ANOVA): Example 13, 50-fold dilution (0.05 mM; Glutaraldehyde 0.5% in PBS, pH 7.4), n=9 rings. As for the experimental part: In this study, compounds of this disclosure were added to abdominal aortas in an opening angle experiment to determine how they would affect the aorta in vitro. Thus, to understand the ability of the compounds of this disclosure to bind to aortic elastin and determine their ability to affect the aorta and aneurysms.
Twelve porcine abdominal aortas were ordered and received. The infra-renal sections of these aortas were dissected, cleaned, rinsed, and then cut into rings measuring 3 mm in width. […] These rings were mixed up before testing to randomize them based on their location in the artery. They were then stored in 500 ml of saline. Analog solutions were prepared at the same molar concentration, but they were not normalized for gallic acid content as indicated in Table 1. These solutions of analogs were made using a solution containing about 26% iopamidol, a radioopaque contrast agent. […] All solutions were prepared one day prior to their use. […] For each solution, 6 aortic rings were placed in a pre-labeled 50 ml conical tube containing 20 ml of the solution, resulting in a volume to tissue ratio of approximately 3.3 ml of solution per ring. The tubes were then incubated at room temperature for 3 hours, with rotation every 30-40 minutes.
After the treatment, while still in the tube, the solution was decanted, and the rings were rinsed three times in PBS and then suspended in PBS. The rings were placed in a 6-well plate, with 2 rings per well and 3 ml of PBS in each well. Each ring was opened with a single cut using fine scissors and laid back in the well. The rings were allowed 15 minutes to recoil in the PBS at room temperature, with gentle shaking every 5 minutes.
Photographs of the rings were taken, and their opening angles were measured using Image J software. The data were then plotted and statistical analyses were performed for comparison.
All solutions were prepared one day prior to their use.
For this experiment, nine aortic rings were placed in 30 ml of a pre-prepared solution within a 50 ml conical tube. […] The tubes were then incubated at room temperature for 3 hours, with rotations occurring every 30-40 minutes. After the incubation period, while still in the tubes, the solution was poured off, and the rings were rinsed three times with PBS and then left suspended in PBS. The rings were then transferred to a 6-well plate, with 2 rings per well and 3-4 ml of PBS in each well. Each ring was opened with a single cut using fine scissors and laid flat in the well. They were allowed to recoil for 15 minutes in PBS at room temperature, with gentle shaking every 5 minutes. Photographs were taken, and the opening angle was measured using the Image J software.

Take `O=CCCCC=O` [Glutaraldehyde, reference compound]: the “statistical analysis of opening angles (ANOVA)” value was “significantly different from all controls and analogs”. As to `O=C(OC[C@H]1O[C@@H](OC(=O)c2cc(O)c(O)c(O)c2)[C@H](OC(=O)c2cc(O)c(O)c(O)c2)[C@@H]1OC(=O)c1cc(O)c(O)c(O)c1)c1cc(O)c(O)c(O)c1` [TG-ribose, polygalloyl ribose], the “statistical comparison of mean opening angles among analogs (FIG. 3)” value (Example 12, 2.49 mM, n=6 rings) is recorded as “statistically significant lower opening angles”. Same read-out and setting: with `O=C(OC[C@@H]1O[C@@H](OC(=O)c2cc(O)c(O)c(O)c2)[C@H](OC(=O)c2cc(O)c(O)c(O)c2)[C@@H](OC(=O)c2cc(O)c(O)c(O)c2)[C@H]1OC(=O)c1cc(O)c(O)c(O)c1)c1cc(O)c(O)c(O)c1` [α-PGG, pentagalloyl α-glucose] the entry was “not statistically different”. In the case of `O=C(OC[C@H]1O[C@@H](OC(=O)c2cc(O)c(O)c(O)c2)[C@H](OC(=O)c2cc(O)c(O)c(O)c2)[C@@H](OC(=O)c2cc(O)c(O)c(O)c2)[C@@H]1OC(=O)c1cc(O)c(O)c(O)c1)c1cc(O)c(O)c(O)c1` [β-PGG, pentagalloyl β-glucose, reference compound], the “statistical analysis of opening angles (ANOVA)” value was “significantly different from all controls and analogs”. The “statistical comparison of mean opening angles among analogs (FIG. 3)” value (Example 12, 2.49 mM, n=6 rings) is recorded as “not statistically different”. Take polygalloyl maltose [OG-maltose]: under “Example 12, 2.49 mM, n=6 rings”, the “opening angle compared to the PBS subgroup (statistics)” value is recorded as “statistically significant differences, except for OG-maltose” and the “variability of opening angles relative to control samples” value is recorded as “substantially reduced”.

Take polygalloyl-sucrose [OG-sucrose]: the “variability of opening angles relative to control samples” value (Example 12, 2.49 mM, n=6 rings) is on record as “substantially reduced”.
